This is an account of results in PubChem BioAssay (NCI).

Holding throughout (test): DTP human tumour cell line panel, 48 h
In assay [1] the test system is KM12 colon.
Assay [2] relates to HOP-62 NSCLC.
The test system of assay [3] is RPMI-8226 leukemia.
For assay [4], the system named is HCT-15 colon.
Assay [5] has as its system HOP-92 NSCLC.
Assay [6] deals with A549 NSCLC.
Assay [7] relates to 786-0 renal.
The test system of assay [8] is NCI/ADR-RES ovarian.
For assay [9], the system named is RXF 393 renal.
For assay [10], the system named is TK-10 renal.

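Exposure lasted 48 hours, with cells grown in 96-well plates and compounds tested at five concentrations. Here, GI50 denotes the concentration required for 50% inhibition of growth. At the TGI there is no net growth.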

For orientation: GI50 means the concentration that inhibits growth by half. What is called TGI is the concentration at which net growth stops. Low readings indicate more potent growth arrest, high ones less potent growth arrest. `Cc1ccnc(NC(c2ccccc2)c2ccc3cccnc3c2O)c1` (centres undefined): the GI50 was 4.15 µM in [1]; 4.41 µM in assay [2]; 8.19 µM in [3]; 3.35 µM in assay [4]; 2.11 µM in assay [5]; 3.99 µM in [6]. Further, the figures for the GI50 in [7], in [8] and in assay [9] were 2.93 µM, 2.47 µM and 7.93 µM, respectively. Also, the TGI was greater than 100 µM in [1]; 96.2 µM in assay [2]; greater than 100 µM in assay [3]; greater than 100 µM in [4]; 8.95 µM in [5]; 45.1 µM in assay [6]. The TGI in assay [7] is 35.1 µM; in assay [8] it was 14.9 µM; in assay [9], greater than 100 µM.
`COc1c(OC)c(OC)c(-c2cc(=O)c3c(OC)c(OC)c(OC)c(OC)c3o2)c(OC)c1OC`: the TGI in assay [2] was greater than 100 µM; in [3], greater than 100 µM; in assay [4], greater than 100 µM; in assay [5] it was 44.9 µM; in [6], greater than 100 µM; in [10], 85.3 µM. The TGI in assay [7] was determined as 37 µM; in [8] it was 78.9 µM; in assay [9], 81.2 µM.
As to `CNC(=O)c1cc(Oc2ccc3nc(NC(=O)Nc4cc(C(F)(F)F)cc(C(F)(F)F)c4)sc3c2)ccn1`, the GI50 was 0.444 µM in [1]; 1.15 µM in assay [2]; 1.02 µM in assay [3]; 1.5 µM in assay [4]; 0.301 µM in [5]; 1.3 µM in [6]. The GI50 in assay [10] was 1.67 µM; in assay [7], 1.42 µM; in assay [9], 1.25 µM. For the same molecule, the TGI in [1] was 2 µM; in assay [2] it was 2.8 µM; in assay [3] it was 3.81 µM; in assay [4], 3.31 µM; in assay [5], 0.949 µM; in assay [6] it was 2.67 µM. Further, the TGI in [10] amounted to 3.35 µM; in assay [7], 2.86 µM; in assay [9] it was 2.99 µM.
In the case of `C1=CC(=NN=P(c2ccccc2)(c2ccccc2)c2ccccc2)C=C1`, the TGI in [1], in [2], in assay [3], in assay [4], in assay [5] and in assay [6] was greater than 100 µM each time. For the same molecule, the TGI in assay [10], in [7] and in [9] was greater than 100 µM throughout.
Consider `Cc1cc(C)c(C(=O)/C(=C/c2ccccc2)c2ccccc2)c(C)c1`, for which the TGI in assay [1], in assay [2], in assay [3], in assay [4], in assay [5] and in assay [6] was greater than 100 µM each time. In addition, the TGI in assay [10], in [7] and in assay [9] was greater than 100 µM in each case.
On to `Cc1ccc(S(=O)(=O)OC2CSSCC2OS(=O)(=O)c2ccc(C)cc2)cc1` (centres undefined), for which the TGI in assay [1] stood at 28.3 µM; in [2] it was 43.2 µM; in [3] it was 46.3 µM; in assay [4], 22.5 µM; in assay [5] it was 23.7 µM; in assay [6], 31.9 µM. Besides, the TGI is 28.9 µM in [10], 25.1 µM in assay [7] and 37.7 µM in [9].
With `CCOC(=O)Nc1cc(-c2ccc(C)c(NS(C)(=O)=O)c2)nn2c(C)nnc12`, the GI50 in assay [1] is 2.02 µM; in assay [2], 1.89 µM; in [3], 0.549 µM; in [4] it was 1.26 µM; in [6] it was 3.07 µM; in [10] it was 0.465 µM. Also, the GI50 in assay [7] was 2.64 µM; in assay [8] it was 6.26 µM; in [9] it was 2.59 µM. The TGI was 19.7 µM in assay [1]; 20.5 µM in assay [2]; 4.97 µM in [3]; 10.3 µM in [4]; greater than 100 µM in [6]; 7.36 µM in assay [10]. Also, the results for the TGI in [7], in assay [8] and in assay [9] were greater than 100 µM, greater than 100 µM and 12.9 µM, respectively.
Turning to `O=C1NC(Cc2ccccc2)C(=O)N2CCCC12` (centres undefined), the TGI in assay [1], in assay [2], in assay [3], in assay [4], in [5] and in assay [6] was greater than 100 µM in each case. Also, the TGI in assay [10], in [7] and in assay [9] was greater than 100 µM in each case.
Consider `COc1cc([C@@H]2c3cc4c(cc3[C@@H](NC(=O)c3ccc(OC(C)=O)cc3)C3COC(=O)[C@@H]32)OCO4)cc(OC)c1O` (some centres undefined), for which the TGI was found to be 11.9 µM in assay [1]; 3.12 µM in assay [2]; 13.2 µM in assay [3]; 24.4 µM in assay [4]; 7.05 µM in assay [5]; 10.6 µM in assay [6]. The TGI in assay [10] is 30.8 µM; in assay [7], 3.47 µM; in assay [9], 36.3 µM.
In the case of `O=C(O)C1C2CCC(O2)C1C(=O)NCc1cccnc1` (centres undefined), the TGI in assay [1], in [2], in [3], in assay [4], in assay [6] and in assay [10] was greater than 100 µM each time. Besides, the TGI in assay [7], in assay [8] and in assay [9] was greater than 100 µM in each case.
As for `COc1ccc(NC(=O)C2=CC(=O)c3ccc(O)cc3C2=O)c(OC)c1`, the TGI in assay [1], in [2], in assay [3], in assay [4], in [5] and in assay [6] was greater than 100 µM in each case. Further, the TGI in [10], in assay [7] and in [9] was greater than 100 µM in each case.
Consider `C/C(CC(=O)Nc1ccc([N+](=O)[O-])cc1)=N\Nc1ccc([N+](=O)[O-])cc1[N+](=O)[O-]`, for which the TGI in [1], in [2], in assay [3], in [4], in assay [5] and in [6] was greater than 100 µM throughout. Besides, the TGI in assay [10], in assay [7] and in assay [9] was greater than 100 µM in each case.
Consider `CN(CCCCN)c1ccc2c(=O)[nH][nH]c(=O)c2c1`, for which the TGI in assay [1], in assay [2], in assay [3], in assay [4], in assay [5] and in [6] was greater than 100 µM throughout. The TGI in [10], in assay [7] and in assay [9] was greater than 100 µM each time.
